Our source for the Kd values is publication PMC5235360 (Biochemistry, 2016).

This assay has as its target bsLDH (Geobacillus stearothermophilus, UniProt P00344). It counts as binding.

Chain of bsLDH (P00344 whole entry): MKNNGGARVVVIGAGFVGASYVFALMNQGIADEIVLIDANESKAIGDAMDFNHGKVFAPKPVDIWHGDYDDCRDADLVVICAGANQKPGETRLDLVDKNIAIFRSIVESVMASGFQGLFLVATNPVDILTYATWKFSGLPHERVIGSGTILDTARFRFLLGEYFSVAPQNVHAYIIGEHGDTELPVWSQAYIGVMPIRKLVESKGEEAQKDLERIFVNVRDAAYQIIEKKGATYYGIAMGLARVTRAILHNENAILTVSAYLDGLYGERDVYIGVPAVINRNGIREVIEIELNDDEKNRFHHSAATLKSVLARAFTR

As to `NC(=O)C1=CN([C@@H]2O[C@H](COP(=O)(O)OP(=O)(O)OC[C@H]3O[C@@H](n4cnc5c(N)ncnc54)[C@H](O)[C@@H]3O)[C@@H](O)[C@H]2O)C=CC1` [NADH], the Kd (as a rule, the equilibrium constant for the complex coming apart) was 1300 ± 700 nM.
